In paper PMC4270796, “Ethenoguanines Undergo Glycosylation by Nucleoside 2′-Deoxyribosyltransferases at Non-Natural Sites” (PLoS ONE, 2014):

Target: T1, L. helveticus PDT (Lactobacillus helveticus, UniProt Q8RLY5)
T1 construct: gene ptd; recombinant in E. coli BL21(DE3)pLysS from pETLH4; ammonium sulfate and Sephacryl S-200, no tag mentioned; C-terminal residue Tyr167; active site shared with adjacent monomer; 3 monomers per ASU
Assay: X-ray crystallography, […] Å, soaked crystals
Assay type: binding
Settings: soak up to 6 mM; active site, four overlapping orientations; also deoxyribosylated at N1 and N7 with dGuo donor

T1 sequence (Q8RLY5 entry or part of it): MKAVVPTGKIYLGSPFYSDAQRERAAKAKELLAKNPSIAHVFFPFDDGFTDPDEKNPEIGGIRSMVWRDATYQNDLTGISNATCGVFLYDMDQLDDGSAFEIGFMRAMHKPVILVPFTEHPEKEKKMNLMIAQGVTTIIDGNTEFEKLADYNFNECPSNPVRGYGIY

O=c1[nH]c2nccn2c2nc[nH]c12 [compound 1, 8,9-dihydro-9-oxoimidazo[2,1-b]purine]
X-ray crystallography, 2.1 Å, soaked crystals: the substrate binds in at least four different, overlapping orientations
